The values below come from patent US20260217712A1, “SOLID STATE FORMS OF MNK INHIBITORS” (4E Therapeutics, Inc., priority 2023, published 2026).

Where two headings read alike, the source gives them in different places.

Format in all cases: physicochemical
A short description of data set [1]: Slurry in pH 2.0 buffer, XRPD. Conditions: pH 2.0 chloride buffer, RT, 5 days. As for the experimental part:
Structure (I) (from Lot B, 30 mg) was suspended in pH 2.0 buffer (chloride buffer, 3 mL) and placed in a shaker at RT. After 1 day, the sample was filtered and analyzed by XRPD. The sample was re-suspended in pH 2.0 buffer (2 mL) and returned to shaking at RT for 4 days. The sample was aliquoted and analyzed by XRPD, before filtration and drying under suction.

Data set [2] is described as follows: pKa measurements.
Data set [3] in a line: Heating for 24 h in a vacuum tray dryer, XRPD and HPLC. How it is done: A polymorphism study of Structure (I) was performed at 75° C., 100° C., 175° C., and 250° C. About 500 mg of Structure (I) Pattern 3 was heated at 75° C. for 24 h in a vacuum tray dryer (VTD) under reduced pressure. Obtained material after heating at 75° C. was analyzed for purity by HPLC and XPRD analysis. […] Additionally, about 500 mg of Structure (I) was heated at 75° C. for 24 h in a VTD under reduced pressure. After 24 h, material was cooled to 25-30° C. under inert atmosphere and analyzed for purity by HPLC and XRPD.
About 500 mg of Structure (I) was heated at 100° C. for 24 h in a VTD under reduced pressure. Obtained material after heating at 100° C. was analyzed for purity by HPLC and XPRD. […] Additionally, about 500 mg of Structure (I) was heated at 100° C. for 24 h in a VTD under reduced pressure. After 24 h material was cooled to 25-30° C. under inert atmosphere. Obtained material was analyzed for purity by HPLC and XPRD.
Obtained material after heating at 175° C. was analyzed for purity by HPLC and XPRD. […] After 24 h, material was cooled to 25-30° C. under inert atmosphere. Obtained material was analyzed for purity by HPLC and XPRD.
About 500 mg of Structure (I) was heated at 250° C. for 24 h in a VTD. Obtained material after heating at 250° C. was analyzed for purity by HPLC and XPRD.

In the case of `Cc1cc(Nc2cc(N)ncn2)c(=O)n2c1C(=O)NC21CCC2(CC2)CC1` [Structure (I), 6″-((6-aminopyrimidin-4-yl)amino)-8″-methyl-2″H-dispiro[cyclopropane-1, l′-cyclohexane-4′,3″-imidazo[1,5-a]pyridine]-1″,5″-dione], in data set [1], the “XRPD form after slurry in pH 2.0 buffer” value is on record as “Pattern 1”. The pKa in data set [2] (read-out: acidic pKa (acidic center)) came to 11.5. The pKa in data set [2] (read-out: basic pKa) was determined as 4.73. Moreover, in data set [3] (100° C., reduced pressure), the “HPLC purity change after heating at 100° C.” value is recorded as “no change” and the “XRPD form after heating at 100° C.” value is “remained as Pattern 3”. For the same molecule, in data set [3] (175° C., reduced pressure), the “HPLC purity change after heating at 175° C.” value was “no change” and the “XRPD form after heating at 175° C.” value is reported as “converted to Pattern 11”. For the same molecule, in data set [3] (250° C.), the “XRPD form after heating at 250° C.” value is “converted to Pattern 11”.

The pKa is the pH at which an ionisable group is half protonated.
